In data set [1] the test system is SARS-CoV-2. Put plainly: microbe, parasite or virus in culture. Format: cell-based.
A further data set has as its system Vero E6 cells. Put plainly: Cell viability by DNA staining (DRAQ7) in the viral infection assay. In kind it is cell-based. The conditions noted are these: 22 h post infection.
For the next data set, the system named is SIRT1. The arrangement: method as in PMID 22331558. The conditions noted are these: read-out: IC50 against SIRT1; cited from earlier work.
The target of data set [2] is O-6′-methylguanine-DNA methyltransferase, MGMT. The arrangement: method as in PMID 16533784. The conditions noted are these: read-out: IC50 against MGMT; cited from earlier work.
In data set [3] the target is nsp10–16 fusion 2′-O-methyltransferase (Severe acute respiratory syndrome coronavirus 2, UniProt P0DTD1). In kind it is biochemical, SARS-CoV-2.
Data set [4] deals with SARS-CoV-2. The note with it: remdesivir at 1 µM and below; cited from earlier work.
Setting [5] is: Vero E6 cells, 0.5 µM remdesivir versus compound alone.
The mark [6] stands for this setting: Severe acute respiratory syndrome coronavirus 2, Vero C1008, Vero E6 cells, MOI 0.5 PFU/cell, 22 h, in additional presence of 0.5 µM remdesivir, read-out: EC50 + Rem. of viral replication (viral nucleoprotein area).

Read-outs that look alike come from different tables or passages of the source.

Broadly, the EC50 is the concentration at which the effect is half-maximal. By IC50 is commonly meant the point on the concentration scale where inhibition reaches its midpoint.

Description for Vero E6 cells: We assayed expression of the viral N protein as a surrogate for viral replication by infecting cells with a constant amount of SARS-CoV-2 in the presence of inhibitor. We then quantified viral replicative capacity in fixed cells 22 h post-infection using a fluorescent anti-nucleoprotein antibody.
1.5 × 10^3 Vero E6 cells (NIBC, U.K.) resuspended in DMEM containing 10% FBS were seeded into each well of 96-well imaging plates (Greiner 655090) and cultured overnight at 37°C and 5% CO2. The next day, a 5× solution of compounds were generated by dispensing 10 mM stocks of compounds into a v-bottom 96-well plate (Thermo 249946) and back filling with DMSO to equalise the DMSO concentration in all wells using an Echo 550 (Labcyte) before resuspending in DMEM containing 10% FBS. […] Finally, the cells were infected by adding 20 µl of SARS-CoV2 with a final MOI of 0.5 PFU/cell. 22 h post infection, cells were fixed, permeabilised, and stained for SARS-CoV2 N protein using Alexa488-labelled-CR3009 antibody produced custom (see section for Recombinant mAb production) and cellular DNA using DRAQ7 (ABCAM). Whole-well imaging at 5× was carried out using an Opera Phenix (PerkinElmer) and fluorescent areas and intensity calculated using the Phenix-associated software Harmony (PerkinElmer).

Regarding Inauhzin, the “EC50 reduction when combined with remdesivir” value (“EC50 reduction when combined” below) in the data set on SARS-CoV-2 [1] (setting [5]) is listed as “no increased inhibitory capacity”. Further, the half-maximal effective concentration (EC50) in the data set with SARS-CoV-2 [1] (Vero E6 cells, MOI 0.5 PFU/cell, 22 h, in additional presence of 0.5 µM remdesivir, read-out: EC50 + Rem. of viral replication (viral nucleoprotein area)) stood at 11.2 µM; in the data set on SARS-CoV-2 [1] (Vero E6 cells, MOI 0.5 PFU/cell, 22 h post infection, read-out: EC50 of viral replication (viral nucleoprotein area)) it was 13 µM. Moreover, the “Cytotoxicity at effective / EC50 concentrations (DNA staining)” value in the data set on Vero E6 cells was “little to no cytotoxicity”. For the same compound, the IC50 in the data set on SIRT1 was around 1 µM.
As to `Nc1nc(OCc2cc(Br)cs2)c2[nH]cnc2n1` [Lomeguatrib], the EC50 stood at 59.8 µM in the data set on SARS-CoV-2 [1] (Severe acute respiratory syndrome coronavirus 2, Vero C1008, 22 h, read-out: EC50 of viral replication (viral nucleoprotein area)) and 44.1 µM in the data set on SARS-CoV-2 [1] (setting [6]). The “EC50 reduction when combined” value in the data set with SARS-CoV-2 [1] (setting [5]) was around 27%. In addition, the “Cytotoxicity at effective / EC50 concentrations (DNA staining)” value with Vero E6 cells is “slight cytotoxicity”. In addition, in data set [2], the 50% inhibitory concentration (IC50) was around 0.005 µM.
With `Nc1ncnc2c1ncn2[C@@H]1O[C@H](C[C@@H](N)CC[C@H](N)C(=O)O)[C@@H](O)[C@H]1O` [sinefungin], the “Inhibition of nsp10–16 methyltransferase (normalised HTRF)” value in data set [3] was “able to inhibit methyltransfer by nsp10–16”.
In the case of `N#Cc1ccc(N2N=C3c4ccc(C(=O)O)cc4CC[C@@H]3[C@@H]2C2CCCC2)cc1Cl` [PF-03882845], the “EC50 reduction when combined” value with SARS-CoV-2 [1] was around 56%. Further, the EC50 came out at 4.79 µM in the data set with SARS-CoV-2 [1] (read-out: EC50 + Rem. of viral replication (viral nucleoprotein area)) and 11 µM in the data set on SARS-CoV-2 [1] (read-out: EC50 of viral replication (viral nucleoprotein area)).
On to `CCC(CC)COC(=O)[C@H](C)N[P@](=O)(OC[C@H]1O[C@@](C#N)(c2ccc3c(N)ncnn23)[C@H](O)[C@@H]1O)Oc1ccccc1` [remdesivir], for which the “Capacity to reduce viral titre in Vero E6 cells” value in the data set on SARS-CoV-2 [4] is “limited capacity to reduce viral titre”.
Turning to `O=C(CCCN1CCC(O)(c2cccc(C(F)(F)F)c2)CC1)c1ccc(F)cc1` [Trifluperidol], the EC50 in the data set with SARS-CoV-2 [1] (setting [6]) is 5.05 µM; in the data set on SARS-CoV-2 [1] (Severe acute respiratory syndrome coronavirus 2, Vero C1008, Vero E6 cells, MOI 0.5 PFU/cell, 22 h post infection, read-out: EC50 of viral replication (viral nucleoprotein area)), 14.9 µM. Besides, the “EC50 reduction when combined” value with SARS-CoV-2 [1] (setting [5]) was around 66%. Moreover, the “Cytotoxicity at effective / EC50 concentrations (DNA staining)” value in the data set on Vero E6 cells is reported as “little to no cytotoxicity”.

The record behind these values is paper PMC8286817, “Identifying SARS-CoV-2 antiviral compounds by screening for small molecule inhibitors of Nsp14 RNA cap methyltransferase” (Biochemical Journal, 2021).
